Tested on: STAT5 phosphorylation downstream of JAK3 in human YT cells
Assay: pSTAT5 cell assay (IL-2 stimulated YT cells, AlphaScreen)
Type: cell-based
Conditions: IL-2 stimulation, read-out: Inhibition values (IC50) pSTAT5
Text: STAT5 phosphorylation represents one of the proximal events in the signalling cascade downstream of JAK3 activation. Therefore STAT5 phosphorylation is an appropriate readout to assess the mechanistic effect of JAK3 inhibition. Stimulation of human YT cells, an NK-like cell line, with interleukin-2 (IL-2) results in phosphorylation of STAT5 at tyrosine residue 694 (Tyr694) that can be quantitatively measured by immunodetection with specific antibodies and an appropriate detection method, in this case AlphaScreen assay technology.
Human YT cells were grown in RPMI medium (Lonza, BE12-167) with 2 mM L-Glutamine (Invitrogen, 25030-024) and 10% heat-inactivated FBS (Invitrogen, 10106-169) and kept in a humidified incubator (37° C., 5% CO2). Cells were harvested by centrifugation, washed once with HBSS (Invitrogen, 14180-046), resuspended in HBSS at 1.5×10^6 cells/ml and 0.9×10^4 cells were seeded in 6 μl per well in a 96 well White plate (PerkinElmer, 6005569).
Test compounds were dissolved in DMSO and a 1:3 dilution series (9 steps) was prepared. To generate a dose response curve, 3 μl of fourfold concentrated compound in 4% DMSO/HBSS were added to each cell sample in the 96 well plate resulting in a final DMSO concentration of 1% DMSO. Cells were incubated for one hour in a humidified incubator (37° C., 5% CO2). To each well 3 μl of a fourfold concentrated IL-2 solution (Recombinant human IL-2, Peprotech 200-02; 120 nM solution in HBSS) was added and incubated for 30 minutes at room temperature. Cells were lysed by adding 3 μl of 5× lysis buffer (SureFire lysis buffer; Perkin Elmer, TGRS5S10K) and incubated for 10 minutes at room temperature with gentle shaking
For signal detection by AlphaScreen® technology the SureFire phospho-STAT5 (Tyr694/Tyr699) kit was used according to instructions provided by the manufacturer (Perkin Elmer, TGRS5S10K). Acceptor beads were added as recommended by the manufacturer (Reactivation buffer/Activation buffer/Acceptor beads at a ratio of 40:10:1) and incubated at room temperature for 1.5 hours with gentle shaking Then donor beads were added as recommended (Dilution buffer/Donor beads at a ratio of 20:1) and incubated at room temperature for 1.5 hours with gentle shaking Plates were read on an Envision instrument (Perkin Elmer) with the AlphaScreen protocol. Data were analysed in BioAssay using the nonlinear regression for a sigmoidal dose-response with a variable slope.

Row | SMILES | IC50 [µM]
1 | CNC(=O)Cn1cc(Nc2ncc(Cl)c(N[C@H](CO)c3ccccc3)n2)cn1 [Compound 23, (S)-2-(4-((5-chloro-4-((2-hydroxy-1-phenylethyl)amino)pyrimidin-2-yl)amino)-1H-pyrazol-1-yl)-N-methylacetamide] | 0.25 to 1
2 | CN(C)C(=O)Cn1cc(Nc2ncc(Cl)c(N[C@H](CO)c3ccccc3)n2)cn1 [Compound 30] | 0.25 to 1
3 | CC(C)NC(=O)Cn1cc(Nc2ncc(Cl)c(N[C@H](CO)c3ccccc3)n2)cn1 [Compound 67] | 0.25 to 1
4 | O=C(Cn1cc(Nc2ncc(Cl)c(N[C@H](CO)c3ccccc3)n2)cn1)NC1CC1 [Compound 68] | 0.25 to 1
5 | OC[C@@H](Nc1nc(Nc2cn[nH]c2)ncc1Cl)c1ccccc1 [Compound 75] | 0.25 to 1
6 | NC(=O)Cn1cc(Nc2ncc(Cl)c(N[C@H](CO)c3ccccc3F)n2)cn1 [Compound 78] | < 0.25
